Test results taken from ChEMBL document CHEMBL1158941, “Diterpenes from the Pohnpeian marine sponge Chelonaplysilla sp” (J Nat Prod, 1991).
Calls of active or inactive are those of the source. The calls are words filed in the database; no cut-off is given here.

Columns and labels:
[1] = test system: Bacillus subtilis; assay: Antimicrobial activity against Bacillus subtilis at 50 ug/disk; type: functional, organism-based
[2] = test system: Bacillus subtilis; assay: Antimicrobial activity against Bacillus subtilis at 5 ug/disk; type: functional, organism-based

| SMILES | Activity [1] | Activity [2] |
| --- | --- | --- |
| C=C1CCCC(C)(C)[C@@H]2CC[C@@](C)([C@@H]3[C@H]4CC(=O)O[C@H]4O[C@H]3O)[C@H]12 | Active | – |
| C=C([C@@H]1[C@@H]2OC(=O)C[C@H]1[C@H](OC(C)=O)O2)[C@H]1CC[C@H]2C(C)(C)CCCC(=C)[C@]12C | – | Active |
| C=C1CCCC(C)(C)[C@@H]2CC[C@@](C)([C@@H]3[C@@H]4OC(=O)C[C@H]3[C@H](OC(C)=O)O4)[C@H]12 | – | Active |
